In patent US10682339B2, “Pharmaceutical compositions directly targeting FKBP52 for the treatment of prostate cancer and methods of using same” (THE BOARD OF REGENTS OF THE UNIVERSITY OF TEXAS SYSTEM, priority 2014, dated 2020):

Legend:
[1] = test system: 22Rv1 prostate cancer cells; experiment: qPCR of endogenous PSA gene expression in 22Rv1 cells; type: cell-based; conditions: absence of hormone
Excerpt: (§1) FIG. 4. GMC1 inhibits hormone-dependent and +independent PSA secretion and hormone dependent proliferation in 22Rv1 prostate cancer cells. (A) ELISA assay in 22Rv1 cells measuring GMC1 effects on PSA secretion in the presence and absence of hormone. (B) qPCR assay in 22Rv1 cells measuring endogenous PSA gene expression in the presence or absence of hormone. For comparison, GMC1, but not MJC13, inhibits hormone-independent PSA secretion and/or expression. (C) A BrdU incorporation assay was used to assess GMC1 effects on hormone-dependent 22Rv1 cell proliferation.

[2] = molecular target: T1, β-catenin interaction with AR (Homo sapiens, UniProt P10275); experiment: β-catenin interaction with AR; conditions: targeting to the AR BF3 surface
T1 sequence (P10275 1-920): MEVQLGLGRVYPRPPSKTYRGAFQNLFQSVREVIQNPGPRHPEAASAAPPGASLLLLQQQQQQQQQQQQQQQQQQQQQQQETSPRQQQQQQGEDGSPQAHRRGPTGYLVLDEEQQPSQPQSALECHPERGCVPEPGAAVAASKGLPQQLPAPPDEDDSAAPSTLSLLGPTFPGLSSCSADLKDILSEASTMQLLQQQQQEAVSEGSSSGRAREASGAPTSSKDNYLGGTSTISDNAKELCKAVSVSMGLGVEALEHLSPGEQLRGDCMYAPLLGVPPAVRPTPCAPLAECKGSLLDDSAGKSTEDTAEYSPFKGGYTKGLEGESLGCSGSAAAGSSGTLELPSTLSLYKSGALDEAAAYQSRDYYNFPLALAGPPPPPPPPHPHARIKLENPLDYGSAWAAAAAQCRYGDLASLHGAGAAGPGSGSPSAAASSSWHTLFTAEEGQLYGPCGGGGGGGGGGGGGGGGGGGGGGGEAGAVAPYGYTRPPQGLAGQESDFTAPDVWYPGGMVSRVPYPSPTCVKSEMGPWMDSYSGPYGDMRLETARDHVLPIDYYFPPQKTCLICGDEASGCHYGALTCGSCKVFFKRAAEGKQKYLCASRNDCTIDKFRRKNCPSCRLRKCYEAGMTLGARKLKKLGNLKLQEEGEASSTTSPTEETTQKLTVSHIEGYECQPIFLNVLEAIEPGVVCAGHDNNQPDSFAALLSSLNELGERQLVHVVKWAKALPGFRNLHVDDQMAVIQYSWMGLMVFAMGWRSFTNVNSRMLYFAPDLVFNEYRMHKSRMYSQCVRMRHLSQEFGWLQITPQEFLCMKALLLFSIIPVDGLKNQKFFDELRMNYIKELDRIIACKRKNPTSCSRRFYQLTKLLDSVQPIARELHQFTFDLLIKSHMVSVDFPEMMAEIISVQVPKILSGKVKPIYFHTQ
Excerpt: MJC13 is described as an inhibitor of FKBP52-regulated AR activity (De Leon et. al. 2011. PNAS. 108 (29): 11878-83) by targeting the AR BF3 surface. A novel mechanism is disclosed by which FKBP52 and β-catenin interact to co-regulate AR activity in prostate cancer cells. […] Specific small molecules docked within the PPIase pocket affect proline-rich loop conformation and interactions. […] Thus, small molecules predicted to target the FKBP52 PPIase pocket have been identified in the disclosed embodiments.

[3] = test system: prostate cancer xenograft; conditions: prostate cancer xenograft model; preliminary preclinical studies; cited from earlier work
[4] = test system: 22Rv1 prostate cancer cells; experiment: ELISA of PSA secretion from 22Rv1 cells in the presence and absence of hormone; type: cell-based; conditions: for inhibition of hormone-independent PSA secretion (ELISA): absence of hormone
Protocol: (§2) FIG. 3. The FKBP52-specific inhibitor GMC1 inhibits AR and GR activity. (A) Representative AR- and GR-mediated luciferase reporter assays in MDA-kb2 cells with a range of GMC1 concentrations. The average IC50 from 4 independent experiments are shown. (B) A representative luciferase reporter assay in 52KO mouse embryonic fibroblast cells in the presence or absence of FKBP52 were performed. Transfected cells were treated with DHT and a range of concentrations of GMC1 and assessed for AR-dependent expression of a luciferase reporter. The average IC50 of 3 independent assays is shown. (C-D) ELISA assays measuring androgen-dependent PSA secretion form LNCaP (C) and 22Rv1 (D) prostate cancer cells treated with the indicated concentrations of GMC1.
as §1

[5] = test system: human prostate cancer cell lines; conditions: cited from earlier work
[6] = test system: 22Rv1 prostate cancer cells; experiment: BrdU incorporation assay of hormone-dependent 22Rv1 cell proliferation; type: cell-based; conditions: 22Rv1 cells
Excerpt: as §1

[7] = test system: GR; experiment: GR-mediated luciferase reporter assay in MDA-kb2 cells; type: cell-based
Protocol: as §2

[8] = test system: AR; experiment: AR-mediated luciferase reporter assay in MDA-kb2 cells; type: cell-based; conditions: among 40 hits from the virtual screen
Protocol: as §2

[9] = test system: FKBP52-regulated AR activity; experiment: AR-dependent luciferase reporter assay in 52KO mouse embryonic fibroblast cells with or without FKBP52; type: cell-based; conditions: 52KO MEF cells, DHT treated
Protocol: as §2

[10] = test system: LNCaP prostate cancer cells; experiment: ELISA of androgen-dependent PSA secretion from LNCaP cells; type: cell-based; conditions: preliminary
Protocol: as §2

[11] = variety of human prostate cancer cell lines

For O=C(Nc1cccc(Cl)c1Cl)C1CCCCC1 [MJC13], the “inhibition of hormone-independent PSA gene expression (qPCR)” value [1] is listed as “not”, the “effect on β-catenin interaction with AR” value [2] is listed as “abrogates” and the “effects on tumor growth” value [3] is listed as “impressive effects on tumor growth”. For the same compound, the “inhibition of hormone-independent PSA secretion (ELISA)” value [4] was “not”, the “effective drug concentrations (AR BF3 surface targeting)” value [5] was “low micromolar range” and the “block of AR signaling” value [5, 11] was “effectively block”. The “block of AR-dependent cancer cell proliferation” value [5, 11] was “effectively block”.

In the case of COc1ccc(/C=N/NC(=O)CSc2nc3ccccc3[nH]2)cc1 [GMC1, 2-(1H-benzimidizol-2-ylsulfanyl)-N—[(Z)-(4methoxyphenyl)methylideneamino]acetamide], the “inhibition of hormone-independent PSA gene expression (qPCR)” value [1] is reported as “inhibits”, the “inhibition of hormone dependent proliferation (BrdU incorporation)” value [6] is reported as “inhibits” and the “inhibition of hormone-independent PSA secretion (ELISA)” value [4] is reported as “inhibits”. For the same compound, the “inhibition of AR-dependent (hormone-dependent) PSA expression/secretion (ELISA)” value ([4]; with hormone) was “inhibits”, the “inhibition of FKBP52-regulated GR activity (effective concentration range)” value [7] was “high nanomolar range” and the “inhibition of AR-mediated reporter gene expression” value [8] was “most potent inhibition”. For the same compound, the “inhibition of FKBP52-regulated AR activity (effective concentration range)” value [9] was “high nanomolar range” and the “inhibition of AR-dependent PSA expression (ELISA)” value [10] was “inhibits”.
